Measurements as given in article PMC11758220, “Identification of a Privileged Scaffold for Inhibition of Sterol Transport Proteins through the Synthesis and Ring Distortion of Diverse, Pseudo-Natural Products” (ACS Central Science, 2025).

Experiments:
[1] = target: T1, OSBP (Homo sapiens, UniProt P22059); test: Fluorescence polarisation (FP) competition with NBD-cholesterol, OSBP; format: binding; settings: single dose; for OSBP (FP) inhibition: Dose = 10 µM
T1 construct: OSBP(377-807); host or cells: E. coli OverExpress C41
T1 sequence (P22059 377-807): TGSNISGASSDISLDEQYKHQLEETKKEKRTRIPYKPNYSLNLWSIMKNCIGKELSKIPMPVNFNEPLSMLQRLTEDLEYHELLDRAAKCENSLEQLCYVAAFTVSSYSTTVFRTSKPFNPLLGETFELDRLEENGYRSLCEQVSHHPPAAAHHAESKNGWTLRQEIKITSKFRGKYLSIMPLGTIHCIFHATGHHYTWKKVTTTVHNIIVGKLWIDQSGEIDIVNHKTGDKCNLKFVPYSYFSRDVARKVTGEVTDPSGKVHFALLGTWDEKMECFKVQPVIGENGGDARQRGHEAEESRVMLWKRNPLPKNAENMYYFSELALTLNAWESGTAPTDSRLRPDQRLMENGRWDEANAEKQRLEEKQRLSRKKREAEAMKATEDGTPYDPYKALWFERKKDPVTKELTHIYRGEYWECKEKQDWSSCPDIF
Description: (§1) Protein expression constructs
(§2) Human ASTER domains of Aster-A(359-547), -B(364-552) and -C(318-504) were subcloned into a pGEX-6p-2rbs vector, thus introducing the cloning artifact ‘GPLGS’.3 The pGEX-6P-1-GST-OSBP(377- […]
(§3) a gift from James H. Hurley (University of California).4 The pHIS_2His6_Thrombin_STARD4(2-205;C75S) plasmid was a gift from Young Jun Im (Chonnam National University).5 STARD5A was a gift from Nicola Burgess-Brown (Addgene plasmid #42392; http://n2t.net/addgene:42392; […]
(§4) Protein expression and purification […]
(§5) vectors including an N-terminal PreScission-cleavable glutathione S-transferase (GST)-tag were expressed in Escherichia coli (E. coli) OverExpress C41 in Terrific Broth (TB) medium for 16 h at 18 °C after the induction with 0.1 mM isopropyl β-D-1-thiogalactopyranoside (IPTG). Cells were harvested at 3500 × g for 15 minutes and lysed by sonication in buffer containing 50 mM HEPES pH 7.5, 300 mM NaCl, 10 %v/v glycerol, 5 mM dithiothreitol (DTT), 0.1 %v/v Triton X-100 and protease inhibitor mix HP plus (Serva). The lysate was purified by affinity chromatography on a GSTrap FF column (Cytiva) using an ÄKTA Start (Cytiva) in buffer containing 50 mM HEPES pH 7.5, 300 mM NaCl, 10 %v/v glycerol, 5 mM DTT and 0.01 %v/v Triton X-100. The GST-tag was cleaved overnight on the column at 4 °C. The Aster sterol binding domains were further purified by size-exclusion chromatography (SEC) on a HiLoad 16/600 Superdex 75 pg (Cytiva) in buffer containing 20 mM HEPES pH 7.5, 300 mM NaCl, 10 %v/v […]
(§6) STARD5(6-213) harboring an N-terminal His6-Tag were expressed in E. coli BL21(DE3) in Luria-Bertani Broth (LB) medium for approximately 16 h at 18 °C after induction with 0.15 mM IPTG. Cells were harvested at 3500 × g for 15 minutes and lysed by sonication in buffer containing 50 mM HEPES pH 7.5, 150 mM NaCl, 5 %v/v glycerol, 5 mM DTT, 0.1 %v/v Triton X -100 and ethylenediaminetetraacetic acid (EDTA)-free protease inhibitor cocktail (Sigma-Aldrich). The cleared lysate was purified by affinity chromatography on a Ni-NTA Superflow Cartridge (Qiagen) using an ÄKTA Start (Cytiva) in buffer containing 50 mM HEPES pH 7.5, 150 mM NaCl, 5 %v/v glycerol, 5 mM DTT. START domains were eluted by using elution buffer containing 50 mM HEPES pH 7.5, 150 mM NaCl, 5 %v/v glycerol, 5 mM DTT and 500 mM imidazole. Proteins were further purified by SEC on a HiLoad 16/600 Superdex 75 pg (Cytiva) in buffer containing 20 mM HEPES pH 7.5, 150 mM NaCl, 5 %v/v glycerol and 2 mM DTT.
(§7) The ORP domain of human OSBP(377-807) in the pGEX-6p-1 vector with an N-terminal PreScission-cleavable GST-tag was expressed in E. coli OverExpress C41 in LB medium for 16 h at 18 °C after induction with 0.1 mM IPTG. Cells were harvested at 3500 × g for 15 minutes and lysed by sonication in buffer containing 20 mM HEPES pH 7.5, 300 mM NaCl, 10 %v/v glycerol, 5 mM DTT, 0.1 %v/v Triton X-100 and EDTA-free protease inhibitor cocktail (Sigma-Aldrich). The cleared lysate was purified by affinity chromatography on a GSTrap HF column (Cytiva) using an ÄKTA Start (Cytiva) in buffer containing 20 mM HEPES pH 7.5, 300 mM NaCl, 10 %v/v glycerol, 5 mM DTT. OSBP(377 -807) was eluted by using elution buffer containing 20 mM HEPES pH 7.5, 300 mM NaCl, 10 %v/v glycerol, 5 mM DTT and 10 mM reduced glutathione. Proteins were further purified by SEC on a HiLoad 16/600 Superdex 75 pg (Cytiva) using an ÄKTA Explorer (Cytiva) in buffer containing 20 mM HEPES pH 7.5, 150 mM NaCl, 10 %v/v glycerol and 2 mM DTT.
(§8) The ORP domains of human ORP1(534-950) in pET24b(+) and ORP2(49-480) in the pET24b(+) vector including an N-terminal His6-Tag were expressed in E. coli BL21(DE3) in TB medium for approximately 16 h at 18 °C after induction with 0.1 mM IPTG. Cells were collected at 3500 × g for 15 minutes and lysed by sonification in buffer containing 10 mM Tris-HCl pH 8, 300 mM NaCl, 5 % glycerol, 2 mM DTT, 0.1 % Triton X-100 and EDTA-free protease inhibitor cocktail (Sigma-Aldrich). The cleared […]

[2] = target: T2, STARD3 (Homo sapiens, UniProt Q14849); test: Differential scanning fluorimetry (DSF), STARD3; format: binding; settings: for STARD3 (DSF) ΔTm / ΔTm at 10 µM: single dose, Dose = 10 µM; for Kd: apparent Kd, mean of three experiments run in technical duplicates, read-out: STARD3 Kd,app (DSF); for STARD3 (DSF) ΔTmmax: maximal thermal shift
T2 construct: STARD3(216-444); made in house; host or cells: E. coli BL21(DE3)
T2 sequence (Q14849 216-444): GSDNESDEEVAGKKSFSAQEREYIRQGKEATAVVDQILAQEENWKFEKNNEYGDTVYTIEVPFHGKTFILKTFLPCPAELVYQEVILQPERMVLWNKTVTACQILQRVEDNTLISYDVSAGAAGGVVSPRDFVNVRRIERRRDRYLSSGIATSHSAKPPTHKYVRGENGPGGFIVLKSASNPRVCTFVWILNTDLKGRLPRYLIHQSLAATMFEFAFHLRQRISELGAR
Description: as §1, §2, §3, §4, §5, §6, §7, §8

Row | Structure (SMILES) | inhibition at 10 µM [1] | OSBP (FP) inhibition [1] | STARD3 (DSF) ΔTm [2] | ΔTm at 10 µM [2] | Kd [2] | STARD3 (DSF) ΔTmmax [2]
1 | C[C@]12CC[C@@H](O)C[C@H]1CCC[C@]21NC(=O)c2ccccc2N1 [Compound 5a] | 9.1% | 15.5% | 0.0244 °C | -0.16 °C | – | –
2 | C[C@]12CC[C@@H](O)C[C@H]1CCc1nc3cc(Cl)c(Cl)cc3nc12 [Compound 7d] | – | -1.0% | -0.1 °C | – | – | –
3 | CC12CCC3CC1CCC21C(=Nc2ccc(Cl)cc21)O3 (stereo not drawn) [Compound 15c] | 3% | – | – | 0.0794 °C | – | –
4 | COc1ccc2c(c1)C(=O)N[C@]1(CCC[C@@H]3C[C@H](O)CC[C@@]31C)N2 [Compound 5c] | 18.2% | 6.4% | 0.0624 °C | 0.114 °C | – | –
5 | Cc1c2c(nc3ccccc13)[C@@]1(C)CC[C@@H](O)C[C@H]1CC2 [Compound 2a] | 10% | – | – | -0.0816 °C | – | –
6 | C[C@]12CC[C@@H](O)C[C@H]1CCc1nc3cc(F)c(F)cc3nc12 [Compound 7c] | – | 8.0% | -0.124 °C | – | – | –
7 | COc1ccc2c(c1)C(=O)CC[C@@H]1C[C@H](O)CC[C@]1(C)C(=O)N2 [Compound 11d] | -5.3% | – | – | -0.119 °C | – | –
8 | Cc1cc(C)c2c(c1)N=C1[C@@]2(O)CC[C@@H]2C[C@H](O)CC[C@]12C [Compound 14c] | 2.7% | – | – | 0.0424 °C | – | –
9 | Cc1ccc2[nH]c3c(c(=O)c2c1)C[C@@H]1C[C@H](O)CC[C@]31C [Compound 12] | 2% | – | – | -0.0694 °C | – | –
10 | CC12CCC3CC1CCC21C(=Nc2ccc(NCc4ccccc4)cc21)O3 (stereo not drawn) [Compound 19b] | 23% | – | – | 3.3 °C | 11.3 µM | 6.3 °C
11 | COc1ccc2[nH]c3c(c2c1)CC[C@@H]1C[C@H](O)CC[C@]31C [Compound 10f] | -6.7% | – | – | -0.0471 °C | – | –
12 | C[C@]12CC[C@@H](O)C[C@H]1CCC[C@]21Nc2ccccc2-n2cccc21 [Compound 4] | 21% | 10.0% | 0.9 °C | 0.5 °C | – | –
13 | CCCCN(C)c1ccc2c(c1)[C@@]13CC[C@@H]4C[C@@H](CC[C@@]41C)OC3=N2 [Compound 19d] | 49% | – | – | 1.7 °C | > 100 µM | 3.9 °C
14 | Cc1ccc2c(c1)[C@@]13CC[C@@H]4C[C@@H](CC[C@@]41C)OC3=N2 [Compound 15e] | 5% | – | – | 0.167 °C | – | –
15 | C[C@]12CC[C@@H](O)C[C@H]1CCc1c2nc2ccccc2c1-c1ccc(F)cc1 [Compound 2d] | 0% | – | – | 0.0456 °C | – | –
16 | CC(C)Oc1ccc(C(=O)Nc2nc3c(s2)CN(C(=O)OC(C)(C)C)CC3)cc1 [Autogramin-2, reference compound] | – | 9.0% | 0.027 °C | – | > 30 µM | –

Row | Structure (SMILES) | inhibition at 10 µM [1] | OSBP (FP) inhibition [1] | STARD3 (DSF) ΔTm [2] | ΔTm at 10 µM [2] | Kd [2] | STARD3 (DSF) ΔTmmax [2]
17 | C[C@]12CC[C@@H](O)C[C@H]1CCC(=O)c1cc(Br)ccc1NC2=O [Compound 11b] | 12% | – | – | -0.0537 °C | – | –
18 | C[C@]12CC[C@@H](O)C[C@H]1CCc1c2[nH]c2c(F)cc(Cl)cc12 [Compound 10i] | -9.3% | – | – | 0.0372 °C | – | –
19 | CC12CCC3CC1CCC21C(=Nc2ccc(N4CCOCC4)cc21)O3 (single isomer, unassigned; (+)) [(+)-19a] | 3.4% | – | – | 1.5 °C | > 100 µM | 3.6 °C
20 | C[C@]12CC[C@@H](O)C[C@H]1CCc1nc3ccccc3nc12 [Compound 7a] | 4% | – | – | -0.1 °C | – | –
21 | C[C@]12CC[C@@H](O)C[C@H]1CCc1sc(-c3ccc(F)cc3)nc12 [Compound 8e] | – | 1.3% | 0.0572 °C | – | – | –
22 | C[C@]12CC[C@@H](O)C[C@H]1CCc1sc(-c3cccnc3)nc12 [Compound 8c] | – | 17.3% | 0.345 °C | – | – | –
23 | C[C@]12CC[C@@H](O)C[C@H]1CCc1c2[nH]c2ncccc12 [Compound 3] | 2.5% | – | – | -0.0743 °C | – | –
24 | Cc1c2c(nc3cc(Br)ccc13)[C@@]1(C)CC[C@@H](O)C[C@H]1CC2 [Compound 2c] | – | -4.0% | -0.168 °C | – | – | –
25 | C[C@]12CC[C@@H](O)C[C@H]1CCc1c2nc2ccccc2c1-c1ccccc1 [Compound 2b] | – | -12.0% | 0.0566 °C | – | – | –
26 | C[C@]12CC[C@@H]3C[C@H]1CC[C@@]21C(=Nc2ccc(-c4ccccc4)cc21)O3 [Compound 21a] | 18% | – | – | 3 °C | – | –
27 | C[C@]12CC[C@@H]3C[C@H]1CC[C@@]21C(=Nc2ccc(N(Cc4ccccc4)c4ccc5c(c4)[C@@]46CC[C@@H]7C[C@@H](CC[C@@]74C)OC6=N5)cc21)O3 [Compound 20a] | – | 11.7% | -0.221 °C | – | – | –
28 | C[C@]12CC[C@@H](O)C[C@H]1CCc1c2nc2ccc(Cl)cc2c1-c1ccccc1 [Compound 2e] | – | 10.6% | -0.1 °C | – | – | –
29 | COc1ccc(-c2nc3c(s2)CC[C@@H]2C[C@H](O)CC[C@]32C)cc1 [Compound 8d] | 2.6% | – | – | 0.5 °C | – | –
30 | Cc1ccc2[nH]c3c(c2c1)CC[C@@H]1C[C@H](O)CC[C@]31C [Compound 10e] | -1.3% | – | – | 0.0774 °C | – | –
31 | C[C@]12CC[C@@H](O)C[C@H]1CCc1c2[nH]c2ccccc12 [Compound 10a] | – | 1.3% | -0.188 °C | – | – | –
